Experimental data from paper PMC13047053, “Crystal structure of human INPP5K with an allosteric inhibitor reveals the structural basis for species specific potency” (Scientific Reports, 2026).
pIC50: −log10 of the molar value.

Biological target: T1, full-length human INPP5K (INPP5K-full) (Homo sapiens, UniProt Q9BT40)
T1 construct: full-length human INPP5K (amino acids 1–448, UniProt ID: Q9BT40); FLAG (N); made in house; host or cells: Expi293 cells (pcDNA3.4, transient)
T1 sequence (Q9BT40 1-448): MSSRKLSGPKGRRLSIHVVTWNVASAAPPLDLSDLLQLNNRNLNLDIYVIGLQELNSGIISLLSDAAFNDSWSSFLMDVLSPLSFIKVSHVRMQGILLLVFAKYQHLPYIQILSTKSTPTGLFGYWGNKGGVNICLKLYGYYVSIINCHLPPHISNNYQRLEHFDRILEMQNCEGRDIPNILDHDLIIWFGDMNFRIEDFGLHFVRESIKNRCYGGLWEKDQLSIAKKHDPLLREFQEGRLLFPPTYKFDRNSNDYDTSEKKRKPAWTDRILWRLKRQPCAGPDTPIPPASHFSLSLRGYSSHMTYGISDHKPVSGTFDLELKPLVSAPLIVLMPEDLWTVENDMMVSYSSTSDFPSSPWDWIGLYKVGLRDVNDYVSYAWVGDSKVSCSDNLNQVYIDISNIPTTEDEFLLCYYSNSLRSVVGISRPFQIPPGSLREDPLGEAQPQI
Assay: Fluorescence polarization assay to evaluate phosphatase inhibition
Assay type: biochemical
Details: 20 µM diC8-PI(3,4,5)P3, 30 min
Excerpt: The protein purification is described in detail elsewhere. Briefly, full-length human INPP5K (amino acids 1–448, UniProt ID: Q9BT40), rat INPP5K (aa 1–446, UniProt ID: Q9R0B6), mouse INPP5K (aa 1–468, UniProt ID: Q8C5L6), hamster INPP5K (aa 1–453, UniProt ID: G3HTF6), guinea pig INPP5K (aa 1–473, UniProt ID: H0V8T7) containing an N-terminal FLAG-tag, full-length human SHIP2 (aa 1–1 258) containing a C-terminal FLAG-tag, and full-length human PIPP (amino acids 1–1 006) containing an N-terminal His8-tag were all cloned into the pcDNA3.4 expression vector and transiently expressed in Expi293 cells (Thermo Fisher Scientific). […] The purity of the protein obtained was evaluated using SDS-PAGE.
HTS assays were performed as described previously. […] Fluorescence polarization was evaluated using an Envision plate reader (PerkinElmer, U.S. LLC, Shelton, CT, USA) at 531/595 nm (excitation/emission) and calculated as 1 000 × [(I||- (G × I⊥))/(I||+ (G × I⊥))], where I|| is the parallel intensity, I⊥ is the perpendicular intensity, and G = 2.25. The amount of diC8-PI(3,4)P₂ product (P) was determined by standard curve fitting, and the percentage inhibition was calculated using the following equation: 100 × (Pctrl—P)/(Pctrl—Pblank), where Pctrl is the no-inhibitor control and Pblank is the no-enzyme control. […]

Structure (SMILES): CC(C)c1sc(NC(=O)c2ccccc2)c(C(=O)O)c1-c1ccccc1 [CPD-1]
- pIC50: 5.43
